According to US8518889B2, “Method of treating cancer with antibodies against long-form leukotriene B4 receptor BLT2” (Korea University Research & Business Foundation, priority 2007, dated 2013):

Tests used:
[1] = tested on: 253J-BV cells; experiment: [3H]-thymidine incorporation assay; assay type: cell-based, human; conditions: for inhibition of thymidine incorporation / cell proliferation: 48 hr
Description: Cells were seed in 96-well plate at the density of 1.0×10^4/well. After 24 hr incubation in RPMI 1640 supplemented with 10% FBS, the media was replaced with RPMI 1640 containing 0.5% FBS for 12 hr. After cells were treated with different concentration BLT antagonists. Then [^3H]-thymidine (1 μCi/ml) (PerkinElmer Life Sciences) was added at 12 hr after antagonists treatment and after 36 hr of further incubation, cells were harvested on the filtermat (PerkinElmer Life Science) and filtermat was dried and packaged in the sample bag (PerkinElmer Life Science). Finally, Betaplate scint (PerkinElmer Life Science) was added to the filtermat, and the radioactivity was counted in a liquid scintillation counter (MicroBeta, Wallac/PerkinElmer). […] LY255283 inhibited proliferation by at least 50% at a concentration of 10 μM at 48 hr.

[2] = tested on: breast cancer cell line, T47D (ER+), MDA-MB-468 (ER−), MDA-MB-453 (ER−); experiment: cell growth assay (trypan blue exclusion); assay type: cell-based, human; conditions: LY255283 5, 10 μM; U75302 0.5, 1 μM; 24, 48, 72 hr
Description: To investigate the effect of BLT2 antagonist, LY255283 and BLT1 antagonist, U75302 on growth of breast cancer, breast cancer cell line, T47D (ER+), MDA-MB-468 (ER−), MDA-MB-453 (ER−) and normal IMR-90 cells were used. Cells were treated with LY255283 and U75302 in a dose-dependent manner and analyzed for cell number using the trypan blue dye exclusion method. Cells were plated at a density of 0.5×10^5 or 5×10^5 cells/well on 12-well plate. After 24 h, cells were incubated in media containing 0.5% serum for 3 hr. Then, cells were treated with U75302 (0.5, 1 μM), LY255283 (5, 10 μM) and incubated at 37° C. for indicated time (24, 48, and 72 hr). To measure the growth of cell, the treated cells were then trypsinized at each time point, and counted by the trypan-blue exclusion method

[3] = tested on: MDA-MB-468 cells; assay type: cell-based, human; conditions: 48 h
Description: Cells were plated a density of 2×10^6 cells/plate in 100-mm plate. After 24 hr, cells incubated in media containing serum-free for 3 hr. Then, cells were treated with U75302 (0.5, 1 μM), LY255283 (5, 10 μM) and incubated at 37° C. for 48 h. Both attached and detached cells were collected and resuspended in a lysis buffer (20 mM Tris/HCl, pH 8.0, 0.1 mM EDTA, 1% SDS, and 0.5 mg/ml proteinase K) and then incubated at 50° C. for overnight. DNA was extracted with phenol/chloroform.

[4] = tested on: MDA-MB-468 cells; experiment: Western blotting of caspase-9 and PARP; assay type: cell-based, human; conditions: 48 hr
Description: Cells were plated a density of 2×10^6 cells/plate in 100-mm plate. After 24 h, cells incubated in media containing serum-free for 3 hr. Then, cells were treated with U75302 (0.5, 1 μM), LY255283 ([…]) and incubated at 37° C. for 48 hr. […] Proteins were separated by SDS-PAGE and transferred onto a nitrocellulose membrane. The membrane was blocked with 5% nonfat dry milk in Tris-buffered saline and then incubated with primary antibodies against caspase-9, PARP for 1 h at room temperature. Blots were developed with a peroxidase-conjugated secondary antibody and proteins were visualized by enhanced chemiluminescence (ECL) procedures (Amersham, USA) according to the manufacturer's recommendation

[5] = tested on: Rat2-HO6 cells; experiment: experimental metastasis assay, lung metastasis driven by H-Ras^V12; assay type: in vivo, nude mice; conditions: intraperitoneal 3 and 5 days after cell injection, 21 days
Description: All experimental animals used in this study were treated according to guidelines approved by the Institutional Animal Care and Use Committee of Korea University. Female nude mice (Charles River, Wilmington, Mass.), four-weeks-old at the time of injection, were used in the experimental metastasis assay. Rat-2, Rat2-HO6, and Rat2-BLT2 cells (5×10^5 cells) were prepared for injection from cultures in logarithmic growth at the time of harvest. The cells were briefly treated with 0.025% trypsin and 0.1% EDTA in Hanks' balanced salt solution and quickly removed from trypsin by centrifugation, resuspended in saline containing LTB4, and injected within 1 hr in 0.1 ml into the lateral tail vein with a 26-gauge needle. For inhibitor experiments, U75302 and LY255283 (0.25 mg/kg for BLT1 antagonist and 2.5 mg/kg for BLT2 antagonist) was injected intraperitoneal ˜3 and 5 days after injection of cells that were pretreated with inhibitors. […]
In vivo lung metastasis driven by H-Ras^V12 (panel B of FIG. 2a) or BLT2 (panel C of FIG. 2a) was reduced by BLT2 inhibition (LY255283) based on the macroscopic and histologic appearance of lung. […] Mice were euthanized 21 days after cell injection, and the number of lung metastasis nodules and weight of lung was analyzed in each group. […] Metastasis survival was analyzed in Kaplan-Meyer plots.

SMILES	inhibition of thymidine incorporation / cell proliferation [1]	inhibition at 10 µM ([1]; Homo sapiens, 10 μM at 48 hr, read-out: inhibited proliferation)	growth of breast cancer cell lines [2]	DNA fragmentation [3]	activation of caspase-9 and PARP cleavage [4]	lung metastasis driven by H-Ras^V12 [5]
CCc1cc(C(C)=O)c(O)cc1OCCCCCC(C)(C)c1nnn[nH]1 [LY255283, 1-[5-ethyl-2-hydroxy-4-[[6-methyl-6-(1H-tetrazol-5-yl)heptyl]oxy]phenyl]-ethanone]	concentration dependent inhibition	≥ 50%	significantly inhibits the growth	laddering pattern characteristic of apoptosis	dose-dependent activation of caspase-9 and cleavage of PARP	significantly reduced
CCCCC/C=C\C[C@@H](O)/C=C/c1cccc(C[C@@H](O)CCCCO)n1 [U75302]	not effect		had no effect on growth	did not induce DNA fragmentation	did not affect on caspase-9 activation and PARP cleavage	caused no suppression on metastasis
